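Results reflect a 48-hour exposure of cells in 96-well plates to compound at five concentrations. GI50 is the concentration that inhibits growth by half.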 Active and inactive are the calls of the source. No stated cut-off is given here; in the data, active = GI50 up to about 1.1 µM and inactive = higher.

Common to all, as to test: growth of human tumour cells (NCI), 48 h
Experiment [1] has as its system DU-145.
Experiment [2] has as its system HT-29.
In experiment [3] the test system is Hs-578T.
Experiment [4] relates to KM12.
The test system of experiment [5] is MCF7.
Experiment [6] relates to NCI-H460.
For experiment [7], the system named is NCI-H522.
The test system of experiment [8] is NCI/ADR-RES.
The subject of experiment [9] is OVCAR-8.
Experiment [10] deals with PC-3.
Experiment [11] has as its system RXF 393.
For experiment [12], the system named is SF-268.
Experiment [13] has as its system SF-539.
Experiment [14] relates to SK-MEL-5.
Experiment [15] concerns TK-10.
The subject of experiment [16] is UACC-62.
In experiment [17] the test system is K562.
In experiment [18] the test system is NCI-H226.
The subject of experiment [19] is HOP-92.

In the case of `C=C[C@@H]1C[C@]2(C(=O)OC)Cc3nc4ccccc4nc3CC(C(=O)OC)=C2O1`, the GI50 in experiment [1] was > 100 µM (inactive); in experiment [2] it was > 100 µM (inactive); in experiment [3], > 100 µM (inactive); in experiment [4], 75.5 µM (inactive); in [5], 40.6 µM (inactive); in experiment [6], > 100 µM (inactive). Moreover, the GI50 in experiment [7] is 64.6 µM (inactive); in [8] it was > 100 µM (inactive); in [9], > 100 µM (inactive); in experiment [10], 62.4 µM (inactive); in [11] it was > 100 µM (inactive); in [12] it was > 100 µM (inactive). Also, the GI50 in experiment [13] is > 100 µM (inactive); in experiment [14], 78.9 µM (inactive); in [15], > 100 µM (inactive); in experiment [16], > 100 µM (inactive).

For `CC(C)(C)C1CCC(=O)/C(=C/CC2CC(=O)N(c3ccccc3)C(=O)C2)C1` (configuration not stated), the GI50 is 19.2 µM (inactive) in experiment [1]; 19.8 µM (inactive) in experiment [2]; 33.1 µM (inactive) in experiment [3]; 19.5 µM (inactive) in [17]; 18.5 µM (inactive) in experiment [4]; 19.3 µM (inactive) in experiment [5]. The GI50 was 16.1 µM (inactive) in experiment [18]; 16.6 µM (inactive) in experiment [6]; 18.9 µM (inactive) in experiment [7]; 17.8 µM (inactive) in [8]; 19.8 µM (inactive) in experiment [9]; 27.5 µM (inactive) in [10]. In addition, the GI50 is 20.1 µM (inactive) in [12], 16.4 µM (inactive) in experiment [14], 17.5 µM (inactive) in [15] and 14.5 µM (inactive) in experiment [16].

On to `NC(CC(=O)OCc1ccccc1)C(=O)OCc1ccccc1` (configuration not stated), for which the GI50 in experiment [1] is > 100 µM (inactive); in experiment [3], 60.4 µM (inactive); in experiment [4], > 100 µM (inactive); in [5], > 100 µM (inactive); in [6], > 100 µM (inactive); in experiment [7] it was > 100 µM (inactive). Moreover, the GI50 in [8], in [9], in experiment [10], in experiment [12], in experiment [13] and in experiment [14] was > 100 µM (inactive) each time. Moreover, the GI50 in experiment [15] and in experiment [16] was > 100 µM (inactive) throughout.

Consider `CC(=O)NC(C)(C)C1CC=C(C)/C(=N\O)C1` (configuration not stated), for which the GI50 in experiment [1], in experiment [19], in experiment [2], in experiment [17], in experiment [4] and in [5] was > 100 µM (inactive) throughout. The GI50 in [6], in experiment [7], in [9], in experiment [10], in experiment [12] and in experiment [13] was > 100 µM (inactive) throughout. In addition, the GI50 in experiment [14], in [15] and in experiment [16] was > 100 µM (inactive) each time.

On to `NC(=O)N/N=C(\Cc1nc2ccc(Cl)cc2nc1O)C(=O)Nc1ccc(Cl)cc1Cl`, for which the GI50 is > 100 µM (inactive) in [1]; > 100 µM (inactive) in experiment [2]; 57.4 µM (inactive) in experiment [3]; > 100 µM (inactive) in experiment [17]; > 100 µM (inactive) in experiment [4]; > 100 µM (inactive) in [5]. Moreover, the GI50 in [18] was 87.1 µM (inactive); in experiment [6] it was > 100 µM (inactive); in experiment [7], > 100 µM (inactive); in experiment [8] it was > 100 µM (inactive); in [9], > 100 µM (inactive); in experiment [10] it was > 100 µM (inactive). For the same compound, the GI50 in experiment [12], in experiment [13], in [14], in [15] and in [16] was > 100 µM (inactive) in each case.

Turning to `COC(=O)[C@]12CSC[C@H]1C[C@H](c1ccccc1OC)N2`, the GI50 in experiment [1], in experiment [17], in experiment [4], in [5], in [18] and in [6] was > 100 µM (inactive) in each case. Also, the GI50 in experiment [7], in experiment [8], in [9], in experiment [10], in experiment [11] and in experiment [12] was > 100 µM (inactive) each time. Moreover, the GI50 in [13], in [14], in experiment [15] and in experiment [16] was > 100 µM (inactive) throughout.

As to `CC(=O)CC(C)(C)NC(=O)[C@@]1(O)CC[C@H]2[C@@H]3CCC4=CC(=O)CC[C@@H]4[C@H]3CC[C@@]21C`, the GI50 in experiment [1], in [19], in experiment [2], in experiment [3], in experiment [17] and in experiment [4] was > 100 µM (inactive) each time. Moreover, the GI50 in experiment [18], in experiment [6], in experiment [7], in [8], in [9] and in experiment [10] was > 100 µM (inactive) in each case. Moreover, the GI50 is > 100 µM (inactive) in experiment [11]; > 100 µM (inactive) in [12]; > 100 µM (inactive) in experiment [13]; 72.8 µM (inactive) in experiment [14]; > 100 µM (inactive) in experiment [15]; > 100 µM (inactive) in experiment [16].

As for `COc1ccc(Cn2c3c(cc(OS(=O)(=O)C(F)(F)F)c2=O)Cc2ccccc2-3)cc1`, the GI50 was 20.2 µM (inactive) in [1]; 22.3 µM (inactive) in [19]; > 50 µM (inactive) in [2]; > 50 µM (inactive) in experiment [3]; 21.5 µM (inactive) in experiment [17]; 26.4 µM (inactive) in experiment [4]. Moreover, the GI50 in experiment [18] is 26.7 µM (inactive); in experiment [6] it was 3.56 µM (inactive); in experiment [7], 22 µM (inactive); in [8] it was 2.29 µM (inactive); in experiment [9] it was 13.3 µM (inactive); in experiment [10], > 50 µM (inactive). In addition, the GI50 is 29.9 µM (inactive) in experiment [11]; 12.8 µM (inactive) in experiment [12]; 10.3 µM (inactive) in experiment [13]; 10.4 µM (inactive) in [14]; 22.3 µM (inactive) in experiment [15]; 10.5 µM (inactive) in [16].

Regarding `OCC1NCC(O)C(O)C1O` (configuration not stated), the GI50 in experiment [1], in [19], in experiment [2], in experiment [3], in [4] and in experiment [5] was > 100 µM (inactive) each time. Moreover, the GI50 in experiment [6], in experiment [7], in experiment [9], in experiment [10], in experiment [11] and in experiment [12] was > 100 µM (inactive) throughout. The GI50 in experiment [13], in experiment [14], in [15] and in experiment [16] was > 100 µM (inactive) in each case.

Turning to `C=C(CCC/C(C)=C/C=C/[C@H](C)CCCc1ccoc1)C[C@@H]1OC(=O)[C@H](C)[C@@H]1O`, the GI50 in experiment [1] is 8.55 µM (inactive); in experiment [19], 8.95 µM (inactive); in experiment [2] it was 15.1 µM (inactive); in experiment [17] it was 13.7 µM (inactive); in [4] it was 9.79 µM (inactive); in experiment [5], 10.8 µM (inactive). For the same compound, the GI50 in experiment [18] was 8.18 µM (inactive); in experiment [6], 12.5 µM (inactive); in experiment [7], 9.02 µM (inactive); in experiment [8] it was 9.71 µM (inactive); in experiment [9], 11.9 µM (inactive); in experiment [10] it was 8.65 µM (inactive). The GI50 was 6.67 µM (inactive) in experiment [11]; 9.2 µM (inactive) in [12]; 8.63 µM (inactive) in experiment [13]; 8.04 µM (inactive) in experiment [14]; 10.6 µM (inactive) in experiment [15]; 7.98 µM (inactive) in experiment [16].

As to `CCOC(=O)C(=CNC(=S)c1ccncc1)C(=O)OCC`, the GI50 in [1], in [19], in experiment [3], in experiment [17], in experiment [4] and in [5] was > 100 µM (inactive) in each case. The GI50 in experiment [6], in experiment [7], in experiment [10], in experiment [11], in experiment [12] and in experiment [13] was > 100 µM (inactive) each time. The GI50 in [14], in experiment [15] and in [16] was > 100 µM (inactive) in each case.

Turning to `COc1ccc(NC(=S)NN=C(C)c2cccc(C(C)=NNC(=S)Nc3ccc(OC)cc3)n2)cc1`, the GI50 in [1] is > 100 µM (inactive); in experiment [19] it was 45.6 µM (inactive); in experiment [2] it was 28.2 µM (inactive); in [3], > 100 µM (inactive); in [17], 31.3 µM (inactive); in experiment [4], 6.44 µM (inactive). Further, the GI50 in experiment [18] is 47.9 µM (inactive); in experiment [6], 12.4 µM (inactive); in [7], 33.8 µM (inactive); in experiment [8], 8.59 µM (inactive); in experiment [9], 9.51 µM (inactive); in experiment [10] it was 27.2 µM (inactive). In addition, the GI50 in [11] was > 100 µM (inactive); in [12] it was > 100 µM (inactive); in experiment [13] it was 16.4 µM (inactive); in [14] it was 0.995 µM (active); in [15], 58.2 µM (inactive); in [16], > 100 µM (inactive).

The values above are taken from ChEMBL document CHEMBL1201862, “PubChem BioAssay data set” (2004).
